Read-outs that look alike come from different tables or passages of the source. One block for each molecule: values may come before it.
Legend:
recombinant human PDE5 = recombinant human PDE5 (Homo sapiens, UniProt O76074); test: PDE5 inhibition, IMAP FP phosphodiesterase assay; type: biochemical; conditions: for inhibition at 10 µM: read-out: PDE5 % inhibition at 10 μm
PDE1A = PDE1A (Homo sapiens, UniProt P54750); test: PDE selectivity array, PDE1A with cGMP as substrate; conditions: for inhibition of cGMP hydrolysis by PDE1A (in words): at concentrations up to 50 μM
PDE2A = PDE2A (Homo sapiens, UniProt O00408); test: PDE selectivity array, PDE2A with cGMP as substrate; conditions: for inhibition of cGMP hydrolysis by PDE2A (in words): at concentrations up to 50 μM
Chain of PDE2A (O00408 whole entry, species assumed): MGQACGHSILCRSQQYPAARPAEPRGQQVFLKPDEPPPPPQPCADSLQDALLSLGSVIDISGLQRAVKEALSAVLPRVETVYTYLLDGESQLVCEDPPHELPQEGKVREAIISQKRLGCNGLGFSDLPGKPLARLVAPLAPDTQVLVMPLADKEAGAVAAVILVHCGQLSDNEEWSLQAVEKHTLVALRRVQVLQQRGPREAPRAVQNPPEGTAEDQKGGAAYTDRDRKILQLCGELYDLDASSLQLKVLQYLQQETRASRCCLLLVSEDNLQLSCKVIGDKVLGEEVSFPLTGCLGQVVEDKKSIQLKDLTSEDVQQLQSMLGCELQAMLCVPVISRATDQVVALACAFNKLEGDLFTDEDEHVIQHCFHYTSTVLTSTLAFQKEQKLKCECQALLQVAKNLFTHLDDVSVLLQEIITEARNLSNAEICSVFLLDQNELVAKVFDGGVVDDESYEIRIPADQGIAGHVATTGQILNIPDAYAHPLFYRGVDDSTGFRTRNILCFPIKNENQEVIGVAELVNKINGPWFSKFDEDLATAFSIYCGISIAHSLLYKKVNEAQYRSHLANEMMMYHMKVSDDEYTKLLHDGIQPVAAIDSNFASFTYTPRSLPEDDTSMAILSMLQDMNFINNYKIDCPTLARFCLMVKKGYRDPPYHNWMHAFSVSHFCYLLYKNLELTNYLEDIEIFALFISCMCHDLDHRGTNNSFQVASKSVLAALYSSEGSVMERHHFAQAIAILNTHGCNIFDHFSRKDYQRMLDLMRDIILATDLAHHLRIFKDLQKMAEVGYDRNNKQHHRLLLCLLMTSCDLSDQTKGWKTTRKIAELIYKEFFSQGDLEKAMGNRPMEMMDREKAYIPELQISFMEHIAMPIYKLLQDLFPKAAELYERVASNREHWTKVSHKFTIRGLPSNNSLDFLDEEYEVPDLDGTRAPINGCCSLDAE

PDE3A = PDE3A (Homo sapiens, UniProt Q14432); test: PDE selectivity array, PDE3A with cGMP as substrate; conditions: for inhibition of cGMP hydrolysis by PDE3A (in words): at concentrations up to 50 μM
Chain of PDE3A (Q14432 whole entry, species assumed): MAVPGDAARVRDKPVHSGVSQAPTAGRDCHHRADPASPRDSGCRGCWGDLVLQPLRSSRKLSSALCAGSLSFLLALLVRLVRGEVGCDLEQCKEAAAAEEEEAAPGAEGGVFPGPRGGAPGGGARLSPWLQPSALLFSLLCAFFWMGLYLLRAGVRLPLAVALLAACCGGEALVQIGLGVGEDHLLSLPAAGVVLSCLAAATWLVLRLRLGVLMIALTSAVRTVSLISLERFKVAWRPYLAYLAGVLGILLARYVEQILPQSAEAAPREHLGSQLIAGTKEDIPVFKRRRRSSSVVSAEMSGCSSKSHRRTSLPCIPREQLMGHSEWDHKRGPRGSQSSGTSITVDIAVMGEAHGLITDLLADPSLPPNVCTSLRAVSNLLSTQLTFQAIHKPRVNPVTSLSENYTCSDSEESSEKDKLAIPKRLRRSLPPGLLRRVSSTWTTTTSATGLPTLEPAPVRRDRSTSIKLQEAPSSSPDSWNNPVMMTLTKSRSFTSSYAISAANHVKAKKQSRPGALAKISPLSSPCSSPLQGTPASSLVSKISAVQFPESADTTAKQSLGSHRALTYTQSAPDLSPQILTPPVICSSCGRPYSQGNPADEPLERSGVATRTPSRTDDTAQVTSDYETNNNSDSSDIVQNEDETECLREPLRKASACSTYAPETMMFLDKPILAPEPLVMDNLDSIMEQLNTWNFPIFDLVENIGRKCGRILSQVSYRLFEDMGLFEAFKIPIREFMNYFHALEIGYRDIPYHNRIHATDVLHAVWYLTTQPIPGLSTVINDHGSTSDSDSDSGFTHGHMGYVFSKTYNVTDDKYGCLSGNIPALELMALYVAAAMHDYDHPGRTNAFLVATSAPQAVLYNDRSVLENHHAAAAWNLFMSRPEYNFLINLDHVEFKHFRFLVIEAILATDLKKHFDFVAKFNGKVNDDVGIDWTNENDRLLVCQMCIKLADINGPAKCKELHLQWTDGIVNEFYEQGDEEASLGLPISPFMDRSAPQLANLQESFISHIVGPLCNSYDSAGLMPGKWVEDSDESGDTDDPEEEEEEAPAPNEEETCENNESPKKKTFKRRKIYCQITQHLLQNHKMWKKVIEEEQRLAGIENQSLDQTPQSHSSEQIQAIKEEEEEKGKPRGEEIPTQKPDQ

PDE9A = PDE9A (Homo sapiens, UniProt O76083); test: PDE selectivity array, PDE9A with cGMP as substrate; conditions: for inhibition of cGMP hydrolysis by PDE9A (in words): at concentrations up to 50 μM
Chain of PDE9A (O76083 whole entry, species assumed): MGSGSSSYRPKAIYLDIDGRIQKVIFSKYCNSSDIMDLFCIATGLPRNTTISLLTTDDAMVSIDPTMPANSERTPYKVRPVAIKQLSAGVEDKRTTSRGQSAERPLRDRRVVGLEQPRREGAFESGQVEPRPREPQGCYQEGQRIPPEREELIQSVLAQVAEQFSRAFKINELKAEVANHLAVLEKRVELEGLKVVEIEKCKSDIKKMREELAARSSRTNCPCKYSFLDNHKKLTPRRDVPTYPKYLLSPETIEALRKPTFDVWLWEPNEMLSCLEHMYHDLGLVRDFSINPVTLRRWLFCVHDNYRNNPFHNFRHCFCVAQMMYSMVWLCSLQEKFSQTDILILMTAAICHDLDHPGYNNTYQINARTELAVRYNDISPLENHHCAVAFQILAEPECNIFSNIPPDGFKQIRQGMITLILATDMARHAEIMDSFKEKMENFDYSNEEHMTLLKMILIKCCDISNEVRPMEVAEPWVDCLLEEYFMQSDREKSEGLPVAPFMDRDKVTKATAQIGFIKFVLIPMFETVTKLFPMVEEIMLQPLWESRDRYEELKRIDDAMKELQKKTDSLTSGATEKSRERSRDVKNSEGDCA

PDE10A = PDE10A (Homo sapiens, UniProt Q9Y233); test: PDE selectivity array, PDE10A with cGMP as substrate; conditions: for inhibition of cGMP hydrolysis by PDE10A (in words): at concentrations up to 50 μM
Chain of PDE10A (Q9Y233 whole entry, species assumed): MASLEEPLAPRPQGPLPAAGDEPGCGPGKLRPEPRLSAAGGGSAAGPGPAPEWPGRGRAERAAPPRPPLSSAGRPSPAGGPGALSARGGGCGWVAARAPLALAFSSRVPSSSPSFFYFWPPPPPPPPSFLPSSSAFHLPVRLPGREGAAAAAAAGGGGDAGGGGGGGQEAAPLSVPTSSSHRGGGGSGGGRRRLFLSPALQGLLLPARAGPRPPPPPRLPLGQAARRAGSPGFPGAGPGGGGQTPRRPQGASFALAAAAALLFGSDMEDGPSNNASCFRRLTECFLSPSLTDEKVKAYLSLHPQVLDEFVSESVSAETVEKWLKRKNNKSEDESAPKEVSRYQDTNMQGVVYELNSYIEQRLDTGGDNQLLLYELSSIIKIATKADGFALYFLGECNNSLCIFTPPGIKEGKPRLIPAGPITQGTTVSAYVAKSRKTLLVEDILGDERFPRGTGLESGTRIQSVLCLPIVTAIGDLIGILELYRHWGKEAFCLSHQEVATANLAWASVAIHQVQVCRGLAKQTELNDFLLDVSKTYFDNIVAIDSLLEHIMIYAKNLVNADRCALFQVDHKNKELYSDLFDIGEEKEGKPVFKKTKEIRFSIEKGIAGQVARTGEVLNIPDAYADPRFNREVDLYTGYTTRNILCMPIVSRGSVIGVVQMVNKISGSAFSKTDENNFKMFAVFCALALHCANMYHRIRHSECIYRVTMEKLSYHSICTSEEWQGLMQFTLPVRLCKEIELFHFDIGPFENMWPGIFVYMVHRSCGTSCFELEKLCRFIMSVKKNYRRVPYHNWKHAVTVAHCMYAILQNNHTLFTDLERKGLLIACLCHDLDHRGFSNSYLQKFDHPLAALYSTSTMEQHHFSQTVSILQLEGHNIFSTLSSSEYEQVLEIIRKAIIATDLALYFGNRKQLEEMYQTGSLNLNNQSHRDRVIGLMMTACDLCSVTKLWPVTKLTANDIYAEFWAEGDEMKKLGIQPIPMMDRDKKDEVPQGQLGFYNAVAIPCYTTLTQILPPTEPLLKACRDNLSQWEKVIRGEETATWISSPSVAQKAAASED

PDE11A = PDE11A (Homo sapiens, UniProt Q9HCR9); test: PDE selectivity array, PDE11A with cGMP and cAMP as substrates; conditions: for IC50: 10 concentrations, double replicates
Chain of PDE11A (Q9HCR9 whole entry, species assumed): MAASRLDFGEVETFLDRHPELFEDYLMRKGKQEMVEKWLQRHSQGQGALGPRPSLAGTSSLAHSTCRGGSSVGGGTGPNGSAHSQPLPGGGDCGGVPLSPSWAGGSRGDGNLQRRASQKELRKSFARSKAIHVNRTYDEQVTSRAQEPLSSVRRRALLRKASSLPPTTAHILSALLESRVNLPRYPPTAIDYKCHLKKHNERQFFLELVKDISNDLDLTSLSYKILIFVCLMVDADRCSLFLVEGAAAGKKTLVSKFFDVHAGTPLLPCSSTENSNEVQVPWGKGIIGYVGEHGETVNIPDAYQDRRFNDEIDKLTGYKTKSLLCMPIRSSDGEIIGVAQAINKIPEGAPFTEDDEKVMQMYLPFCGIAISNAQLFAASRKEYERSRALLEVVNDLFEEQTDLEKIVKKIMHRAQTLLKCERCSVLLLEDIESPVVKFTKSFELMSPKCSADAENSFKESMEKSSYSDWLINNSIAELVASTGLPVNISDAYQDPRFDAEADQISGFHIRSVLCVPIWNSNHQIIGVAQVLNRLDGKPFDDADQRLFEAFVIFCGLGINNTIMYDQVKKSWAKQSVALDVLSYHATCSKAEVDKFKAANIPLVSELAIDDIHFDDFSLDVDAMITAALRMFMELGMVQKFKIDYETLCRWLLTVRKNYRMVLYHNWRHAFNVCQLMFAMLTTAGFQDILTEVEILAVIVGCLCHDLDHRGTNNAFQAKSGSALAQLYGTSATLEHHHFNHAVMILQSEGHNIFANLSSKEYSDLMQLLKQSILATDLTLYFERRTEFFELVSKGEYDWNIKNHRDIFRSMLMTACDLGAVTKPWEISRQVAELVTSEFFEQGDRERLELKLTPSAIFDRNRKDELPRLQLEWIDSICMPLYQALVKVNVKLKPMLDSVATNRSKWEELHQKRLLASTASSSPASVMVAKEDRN

[1] = IC50 PDE11A cAMP, substrate cAMP
[2] = IC50 PDE11A cGMP, substrate cGMP

inhibition at 10 µM (recombinant human PDE5): < 60%
SMILES: COC(=O)[C@H]1Cc2c([nH]c3ccccc23)[C@@H](c2ccc(Br)s2)N1 [Compound 1, (1S,3R) Methyl 1-(5-bromo-2-thienyl)-2,3,4,9-tetrahydro-1H-β-carboline-3-carboxylate]

inhibition at 10 µM (recombinant human PDE5): < 60%
SMILES: COC(=O)[C@@H]1Cc2c([nH]c3ccccc23)[C@@H](c2ccc(Br)s2)N1 [Compound 4, (1S,3S) Methyl 1-(5-bromo-2-thienyl)-2,3,4,9-tetrahydro-1H-β-carboline-3-carboxylate]

inhibition at 10 µM (recombinant human PDE5): < 60%
SMILES: CC(C)(C)N1C(=O)[C@H]2Cc3c([nH]c4ccccc34)[C@H](c3ccc(Br)s3)N2C1=O [Compound 14, (5R,11aR) 5-(5-Bromo-2-thienyl)-2-tert-butyl-5,6,11,11a-tetrahydro-1H-imidazo[1′,5 ′:1,6]pyrido[3,4-b]indole-1,3(2H)-dione]

inhibition at 10 µM (recombinant human PDE5): < 60%
SMILES: CCCCN1C(=O)[C@H]2Cc3c([nH]c4ccccc34)[C@H](c3ccc(Br)s3)N2C1=O [Compound 10, (5R,11aR) 5-(5-Bromo-2-thienyl)-2-butyl-5,6,11,11a-tetrahydro-1H-imidazo[1′,5 ′:1,6]pyrido[3,4-b]indole-1,3(2H)-dione]

IC50 (recombinant human PDE5): 170 nM
inhibition at 10 µM (recombinant human PDE5): 99%
IC50 (PDE1A): > 50 µM
IC50 (PDE2A): > 50 µM
IC50 (PDE3A): > 50 µM
IC50 (PDE9A): > 50 µM
IC50 (PDE10A): > 50 µM
IC50 (PDE11A; [1]): 4 µM
IC50 (PDE11A; [2]): 2.3 µM
Selectivity index IC50 (PDE11A/PDE5A) cGMP/cGMP (PDE11A; ratio of IC50 PDE11A to PDE5A, cGMP as substrate): 14
SMILES: CCCCN1C(=O)[C@H]2Cc3c([nH]c4ccccc34)[C@@H](c3ccc(Br)s3)N2C1=O [Compound 9, (5S,11aR) 5-(5-Bromo-2-thienyl)-2-butyl-5,6,11,11a-tetrahydro-1H-imidazo[1′,5 ′:1,6]pyrido[3,4-b]indole-1,3(2H)-dione]
inhibition of cGMP hydrolysis by PDE1A (in words) (PDE1A): lacked the ability to inhibit cGMP hydrolysis
inhibition of cGMP hydrolysis by PDE2A (in words) (PDE2A): lacked the ability to inhibit cGMP hydrolysis
inhibition of cGMP hydrolysis by PDE3A (in words) (PDE3A): lacked the ability to inhibit cGMP hydrolysis
inhibition of cGMP hydrolysis by PDE9A (in words) (PDE9A): lacked the ability to inhibit cGMP hydrolysis
inhibition of cGMP hydrolysis by PDE10A (in words) (PDE10A): lacked the ability to inhibit cGMP hydrolysis

IC50 (recombinant human PDE5): 1000 nM
inhibition at 10 µM (recombinant human PDE5): 87%
SMILES: CCN1CC(=O)N2[C@H](c3ccc(Br)s3)c3[nH]c4ccccc4c3C[C@H]2C1=O [Compound 24, (6S,12aS) 6-(5-Bromo-2-thienyl)-2-ethyl-2,3,6,7,12,12a-hexahydropyrazino[1′,2 ′:1,6]pyrido[3,4-b]indole-1,4-dione]

IC50 (recombinant human PDE5): 1710 nM
inhibition at 10 µM (recombinant human PDE5): 81%
SMILES: CCN1CC(=O)N2[C@H](c3ccc(Br)s3)c3[nH]c4ccccc4c3C[C@@H]2C1=O [Compound 23, (6S,12aR) 6-(5-Bromo-2-thienyl)-2-ethyl-2,3,6,7,12,12a-hexahydropyrazino[1′,2 ′:1,6]pyrido[3,4-b]indole-1,4-dione]

IC50 (recombinant human PDE5): 320 nM
inhibition at 10 µM (recombinant human PDE5): 97%
SMILES: C=CCN1C(=O)[C@@H]2Cc3c([nH]c4ccccc34)[C@@H](c3ccc(Br)s3)N2C1=O [Compound 20, (5S,11aS) 5-(5-Bromo-2-thienyl)-2-allyl-5,6,11,11a-tetrahydro-1H-imidazo[1′,5 ′:1,6]pyrido[3,4-b]indole-1,3(2H)-dione]

PDE5 inhibition (in words) (recombinant human PDE5; SAR statement in text): no PDE5 inhibition
inhibition at 10 µM (recombinant human PDE5): < 60%
SMILES: COC(=O)c1cc2c([nH]c3ccccc32)c(-c2ccc(Br)s2)n1 [Compound 25, Methyl 1-(5-bromo-2-thienyl)-β-carboline-3-carboxylate]

IC50 (recombinant human PDE5): 290 nM
SMILES: C=CCN1C(=O)[C@H]2Cc3c([nH]c4ccccc34)[C@@H](c3ccc(Br)s3)N2C1=O [Compound 17, (5S,11aR) 5-(5-Bromo-2-thienyl)-2-allyl-5,6,11,11a-tetrahydro-1H-imidazo[1′,5 ′:1,6]pyrido[3,4-b]indole-1,3(2H)-dione]

inhibition at 10 µM (recombinant human PDE5): < 60%
SMILES: COC(=O)[C@H]1Cc2c([nH]c3ccccc23)[C@H](c2ccc(Br)s2)N1 [Compound 2, (1R,3R) Methyl 1-(5-bromo-2-thienyl)-2,3,4,9-tetrahydro-1H-β-carboline-3-carboxylate]

IC50 (recombinant human PDE5): 470 nM
inhibition at 10 µM (recombinant human PDE5): 92%
SMILES: CCCCN1C(=O)[C@@H]2Cc3c([nH]c4ccccc34)[C@@H](c3ccc(Br)s3)N2C1=O [Compound 12, (5S,11aS) 5-(5-Bromo-2-thienyl)-2-butyl-5,6,11,11a-tetrahydro-1H-imidazo[1′,5 ′:1,6]pyrido[3,4-b]indole-1,3(2H)-dione]

inhibition at 10 µM (recombinant human PDE5): < 60%
SMILES: CC(C)(C)N1C(=O)[C@@H]2Cc3c([nH]c4ccccc34)[C@H](c3ccc(Br)s3)N2C1=O [Compound 15, (5R,11aS) 5-(5-Bromo-2-thienyl)-2-tert-butyl-5,6,11,11a-tetrahydro-1H-imidazo[1′,5 ′:1,6] pyrido[3,4-b]indole-1,3(2H)-dione]

IC50 (recombinant human PDE5): 5400 nM
SMILES: C=CCN1C(=O)[C@H]2Cc3c([nH]c4ccccc34)[C@H](c3ccc(Br)s3)N2C1=O [Compound 18, (5R,11aR) 5-(5-Bromo-2-thienyl)-2-allyl-5,6,11,11a-tetrahydro-1H-imidazo[1′,5 ′:1,6]pyrido[3,4-b]indole-1,3(2H)-dione]

IC50 (PDE1A): > 50 µM
IC50 (PDE2A): > 50 µM
IC50 (PDE3A): > 50 µM
IC50 (PDE9A): > 50 µM
IC50 (PDE10A): > 50 µM
SMILES: CN1CC(=O)N2[C@H](c3ccc4c(c3)OCO4)c3[nH]c4ccccc4c3C[C@@H]2C1=O [Tadalafil, tadalafil, reference compound]
inhibition of cGMP hydrolysis by PDE1A (in words) (PDE1A): lacked the ability to inhibit cGMP hydrolysis
inhibition of cGMP hydrolysis by PDE2A (in words) (PDE2A): lacked the ability to inhibit cGMP hydrolysis
inhibition of cGMP hydrolysis by PDE3A (in words) (PDE3A): lacked the ability to inhibit cGMP hydrolysis
inhibition of cGMP hydrolysis by PDE9A (in words) (PDE9A): lacked the ability to inhibit cGMP hydrolysis
inhibition of cGMP hydrolysis by PDE10A (in words) (PDE10A): lacked the ability to inhibit cGMP hydrolysis

IC50 (recombinant human PDE5): 1000 nM
SMILES: CC(C)(C)N1C(=O)[C@@H]2Cc3c([nH]c4ccccc34)[C@@H](c3ccc(Br)s3)N2C1=O [Compound 16, (5S,11aS) 5-(5-Bromo-2-thienyl)-2-tert-butyl-5,6,11,11a-tetrahydro-1H-imidazo[1′,5 ′:1,6]pyrido[3,4-b]indole-1,3(2H)-dione]

inhibition at 10 µM (recombinant human PDE5): < 60%
SMILES: COC(=O)[C@@H]1Cc2c([nH]c3ccccc23)[C@H](c2ccc(Br)s2)N1 [Compound 3, (1R,3S) Methyl 1-(5-bromo-2-thienyl)-2,3,4,9-tetrahydro-1H-β-carboline-3-carboxylate]

IC50 (recombinant human PDE5): 390 nM
inhibition at 10 µM (recombinant human PDE5): 97%
SMILES: CC(C)(C)N1C(=O)[C@H]2Cc3c([nH]c4ccccc34)[C@@H](c3ccc(Br)s3)N2C1=O [Compound 13, (5S,11aR) 5-(5-Bromo-2-thienyl)-2-tert-butyl-5,6,11,11a-tetrahydro-1H-imidazo[1′,5 ′:1,6]pyrido[3,4-b]indole-1,3(2H)-dione]

IC50 (recombinant human PDE5; read-out: PDE5 inhibition IC50, 10 concentrations, each with double replicates): 160 nM
IC50 (PDE1A): > 50 µM
IC50 (PDE2A): > 50 µM
IC50 (PDE3A): > 50 µM
IC50 (PDE9A): > 50 µM
IC50 (PDE10A): > 50 µM
IC50 (PDE11A; [1]): 11.3 µM
IC50 (PDE11A; [2]): 7.8 µM
SMILES: CCN1C(=O)[C@@H]2Cc3c([nH]c4ccccc34)[C@@H](c3ccc(Br)s3)N2C1=O [Compound 8, (5S,11aS) 5-(5-Bromo-2-thienyl)-2-ethyl-5,6,11,11a-tetrahydro-1H-imidazo[1′,5 ′:1,6]pyrido[3,4-b]indole-1,3(2H)-dione]
inhibition of cGMP hydrolysis by PDE1A (in words) (PDE1A): lacked the ability to inhibit cGMP hydrolysis
inhibition of cGMP hydrolysis by PDE2A (in words) (PDE2A): lacked the ability to inhibit cGMP hydrolysis
inhibition of cGMP hydrolysis by PDE3A (in words) (PDE3A): lacked the ability to inhibit cGMP hydrolysis
inhibition of cGMP hydrolysis by PDE9A (in words) (PDE9A): lacked the ability to inhibit cGMP hydrolysis
inhibition of cGMP hydrolysis by PDE10A (in words) (PDE10A): lacked the ability to inhibit cGMP hydrolysis

inhibition at 10 µM (recombinant human PDE5): < 60%
SMILES: C=CCN1C(=O)[C@@H]2Cc3c([nH]c4ccccc34)[C@H](c3ccc(Br)s3)N2C1=O [Compound 19, (5R,11aS) 5-(5-Bromo-2-thienyl)-2-allyl-5,6,11,11a-tetrahydro-1H-imidazo[1′,5 ′:1,6]pyrido[3,4-b]indole-1,3(2H)-dione]

inhibition at 10 µM (recombinant human PDE5): < 60%
SMILES: CCCCN1C(=O)[C@@H]2Cc3c([nH]c4ccccc34)[C@H](c3ccc(Br)s3)N2C1=O [Compound 11, (5R,11aS) 5-(5-Bromo-2-thienyl)-2-butyl-5,6,11,11a-tetrahydro-1H-imidazo[1′,5 ′:1,6]pyrido[3,4-b]indole-1,3(2H)-dione]

From paper PMC4980837 (Archiv der Pharmazie, 2013)
